The values below come from patent publication US5245077A, “L-buthionine-S-sulfoximine and methods of making” (Cornell Research Foundation Inc., priority 1992, dated 1993).

As usually defined, the Km is the substrate concentration at which the rate is half of its maximum. As a reminder, the Ki is the dissociation constant of the complex between target and ligand, obtained from inhibition or displacement. Lower therefore signals tighter binding.

Series [1] concerns L-glutamylcysteine uptake. The settings on record: kidney; cited from earlier work.
Series [2] deals with T1, gamma-glutamylcysteine synthetase (Rattus norvegicus, UniProt P19468).
T1 sequence (P19468 1-637): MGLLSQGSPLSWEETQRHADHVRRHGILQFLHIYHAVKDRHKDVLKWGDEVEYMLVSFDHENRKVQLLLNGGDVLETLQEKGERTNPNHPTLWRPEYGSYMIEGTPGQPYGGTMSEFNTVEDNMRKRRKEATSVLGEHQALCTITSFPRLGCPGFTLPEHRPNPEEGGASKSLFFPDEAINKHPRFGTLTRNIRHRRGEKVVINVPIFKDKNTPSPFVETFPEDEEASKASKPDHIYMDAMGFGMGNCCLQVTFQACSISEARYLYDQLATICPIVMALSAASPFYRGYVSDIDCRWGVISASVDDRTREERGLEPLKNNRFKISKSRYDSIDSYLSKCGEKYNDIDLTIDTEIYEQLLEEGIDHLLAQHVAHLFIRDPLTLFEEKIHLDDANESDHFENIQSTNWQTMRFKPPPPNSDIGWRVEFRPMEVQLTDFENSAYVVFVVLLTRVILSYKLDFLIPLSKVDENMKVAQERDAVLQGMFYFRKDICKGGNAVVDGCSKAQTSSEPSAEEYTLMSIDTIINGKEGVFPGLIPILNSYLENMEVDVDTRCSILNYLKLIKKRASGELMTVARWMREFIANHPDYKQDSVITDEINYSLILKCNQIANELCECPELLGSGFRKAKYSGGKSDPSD
T1 sequence (P48508 1-274 partner): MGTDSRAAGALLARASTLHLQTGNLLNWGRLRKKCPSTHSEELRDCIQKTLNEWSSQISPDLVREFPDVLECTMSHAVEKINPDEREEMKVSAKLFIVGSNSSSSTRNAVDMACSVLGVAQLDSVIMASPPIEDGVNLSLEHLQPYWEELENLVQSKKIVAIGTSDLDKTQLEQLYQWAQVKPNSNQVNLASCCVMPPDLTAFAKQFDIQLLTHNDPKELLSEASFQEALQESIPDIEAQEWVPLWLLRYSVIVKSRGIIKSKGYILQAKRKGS
Put plainly: Inhibition of gamma-glutamylcysteine synthetase (coupled PK/LDH assay, NADH absorbance at 340 mμ). The class given is biochemical. The settings on record: for Ki / binding mode: versus glutamate; for Ki: Lineweaver-Burk plot. Here is the method: L-buthionine-S-sulfoximine, L-buthionine-R-sulfoximine and D-buthionine-SR-sulfoximine were assayed for ability to inhibit gamma-glutamylcysteine synthetase.
The assay procedure used is similar to that described in Griffith, O. W., J. Biol. Chem. 257, 13704-13712 (1982).
The assay is based on the following reactions wherein GS is used to denote gamma-glutamylcysteine synthetase, PK is used to denote pyruvate kinase, LDH is used to denote lactate dehydrogenase, NADH is used to denote reduced beta-nicotinamide adenine dinucleotide, NAD^+ is used to denote oxidized beta-nictoninamide adenine dinucleotide, ATP is used to denote adenosine triphosphate, ADP is used to denote adenosine diphosphate, and Pi is used to denote inorganic phosphate.
The assay is based on the fact that the velocity of the reaction to produce gamma-glutamylaminobutyrate is reduced to the extent that GS is inhibited. […] Reactions (2) and (3) are a detection system for ADP wherein ADP, as it is produced, reacts with phosphoenolpyruvate to produce pyruate, which reacts with NADH to produce NAD^+. […] Thus, progress of the GS reaction results in a decrease in the absorbence of the solution at 340 mμ and, if GS is inhibited, the decrease in absorbence at 340 mμ occurs at a slower rate. Such studies are carried out at several concentrations of inhibitor.
Each test for inhibition was carried out in a cuvette containing in a final volume of 1 ml the following: 150 mM Tris-HCl buffer (pH 8.2), 75 mM KCl, 10 mM ATP, 5 mM phosphoenolpyruvate, 25 mM MgCl2, 1 to 5 mM L-glutamate, 10 mM α-amino-L-butyrate, 0.3 mM NADH, 0.2 mM EDTA, 10 International Units of PK, 10 International Units of LDH and 0.03 International Units of GS. […] Four sets of runs were made with 1 mM glutamate; 4 sets of runs were made with 1.7 mM glutamate; 4 sets of runs was made with 2.5 mM glutamate and 4 sets of runs were made with 5 mM glutamate. At each glutamate concentration, one set of runs were made with no inhibitor. For studies with L-buthionine-R-sulfoximine the other 3 sets of runs contained 0.05, 0.1, 0r 0.2 mM inhibitor. For studies with D-buthionine-SR-sulfoximine, the other 3 sets of runs contained 2, 5 or 10 mM inhibitor.
For each test run the temperature was kept at 37° C. and GS was added last to start the reaction. The reaction velocity was followed from the decrease in absorbence at 340 mμ (a decrease of 0.62 in optical density indicates 0.1 μmol of product was formed).
A Lineweaver-Burk plot was then prepared.
Complete inhibition was obtained in less than 5 min with either concentration tested.

Series [3] has as its system tissue glutathione levels. Nature of the series: Glutathione depletion in mice (tissue glutathione levels). In kind it is in vivo. The settings on record: for glutathione level of kidney: L-SR and D-SR 0.4 mmole/kg, L-S and L-R 0.2 mmole/kg; for depletion of glutathione in liver (in words) / depletion of glutathione in pancreas (in words): L-R 0.2 mmole/kg, D-SR 0.4 mmole/kg.
Method: Tissue glutathione levels were determined as described in Griffith, O. W., Anal. Biochem. 106, 207-212, (1980).
Thirty two mice were given physiological saline, 4 mice were given 0.4 mmole/kg of L-buthionine-SR-sulfoximine, 4 mice were given 0.2 mmole/kg of L-buthionine-S-sulfoximine, 4 mice were given 0.2 mmoles/kg of L-buthionine-R-sulfoximine and 4 mice were given 0.4 mmole/kg or D-buthionine-SR-sulfoximine. All injections were given intraperitoneally. Two hours after injection, the mice were killed, and the glutathione levels in the brain, liver, pancreas, and kidney were determined.

Series [4] can be described thus: Transport of 35S-labelled isomers into tissues (tissue content). In kind it is in vivo, mice. The settings on record: 2 mmole/kg i.p., 2 hours. Here is the method: The transport of L-buthionine-S-sulfoximine and L-buthionine-R-sulfoximine into tissues was examined using preparations of each isomer radiolabeled with ^35 S.
L-[^35 S]-Buthionine-SR-sulfoximine was prepared from L-[^35 S]methionine as described previously (Griffith, O. W., J. Biol. Chem. 257, 13704-13712 (1982)). The preparation was separated into L-[^35 S]-buthionine-S-sulfoximine and L-[^35 S]-buthionine-R-sulfoximine by chromatography using Cu^++ D-proline buffer as described in Example III.
Twelve mice were injected intraperitoneally with L-[^35 S]-buthionine-S-sulfoximine and 12 mice were injected intraperitoneally with L-buthionine-R-sulfoximine. For all mice the dose was 2 mmole/kg. After 2 hours the mice were sacrificed, and the radioactivity contained in the various tissues was determined by liquid scintillation counting. From that determination and from the known specific activity of the compounds injected, the tissue content of either L-buthionine-S-sulfoximine or L-buthionine-R-sulfoximine was calculated. The results in μmole/gm tissue were as follows (tissue, content of L-buthionine-S-sulfoximine, content of L-buthionine-R-sulfoximine): brain, 0.11, 0.17; lung, 0.53, 0.55; heart, 0.33, 0.49; liver, 0.11, 0.16; spleen 0.51, 0.59; small intestine, 0.34, 0.39; large intestine, 0.25, 0.20; testes, 0.45, 0.50; skeletal muscle, 0.18, 0.24.

The target in series [5] is T1, gamma-glutamylcysteine synthetase. The settings on record: cited from earlier work.
For another series, the system named is Trypanosoma b. brucei. The settings on record: mice infected with Trypanosoma b. brucei; cited from earlier work.
The mark [6] stands for this setting: kidney, i.p., 2 hours after injection.

“Also recorded” adds a separate entry of the source. Like-named read-outs stand apart in the source and are kept apart here.

`CCCCS(=O)(=O)CC[C@H](N)C(=O)O` [L-buthionine sulfone]: the “L-glutamylcysteine uptake from the tubule (in words)” value in series [1] was “inhibition of L-glutamylcysteine uptake from the tubule”.

With `CCCC[S@](=N)(=O)CC[C@H](N)C(=O)O` [L-buthionine-S-sulfoximine], in series [2], the “inhibition of gamma-glutamylcysteine synthetase (in words)” value (“inhibition … (in words)” below) is “strongly and irreversibly inhibits”; the reversibility of inhibition entry was “irreversible inhibition”. For the same molecule, the “time to complete inhibition” value in series [2] (0.01 or 0.1 mM inhibitor, either concentration) is reported as “less than 5 min”. Further, the “reversal of inhibition by dilution or gel permeation chromatography” value in series [2] (buffers containing ATP and MgCl2) is “could not be reversed”. Also, the “depletion of tissue glutathione levels in several tissues (in words)” value in series [3] (compared with L-buthionine-SR-sulfoximine at twice the dose) is given as “as effectively as L-buthionine-SR-sulfoximine given at twice the dose”. Moreover, the “glutathione level of kidney” value in series [3] (setting [6]) was 27 % of control. Moreover, the “glutathione level of liver” value in series [3] (liver, i.p., 2 hours after injection, SR 0.4 mmole/kg, S 0.2 mmole/kg) is 41 % of control. The “glutathione level of pancreas” value in series [3] (pancreas, i.p., 2 hours after injection, SR 0.4 mmole/kg, S 0.2 mmole/kg) is “about 42 % of control”. In series [4], the “tissue content, brain” value was 0.11 μmole/gm tissue; the “tissue content, heart” value was 0.33 μmole/gm tissue; the “tissue content, large intestine” value worked out at 0.25 μmole/gm tissue; the “tissue content, liver” value is 0.11 μmole/gm tissue. In series [4], the “tissue content, lung” value was 0.53 μmole/gm tissue; the “tissue content, skeletal muscle” value came to 0.18 μmole/gm tissue; the “tissue content, small intestine” value came to 0.34 μmole/gm tissue; the “tissue content, spleen” value was found to be 0.51 μmole/gm tissue. Besides, the “tissue content, testes” value in series [4] was determined as 0.45 μmole/gm tissue.

For `C[S@](=N)(=O)CC[C@H](N)C(=O)O` [L-methionine-S-sulfoximine], the “inhibition … (in words)” value in series [5] is reported as “the only diastereomer of DL-methionine-SR-sulfoximine that inhibits gamma-glutamylcysteine synthetase”.

For the molecule `CCCCS(=N)(=O)CCC(N)C(=O)O` (racemic) [DL-buthionine-SR-sulfoximine], the “survival of infected mice (in words)” value in the series with Trypanosoma b. brucei is “extended survival and in some cases to be cured”.

Turning to `N[C@@H](CCC(=O)O)C(=O)O` [glutamate, L-glutamate], in series [2] (read-out: Km for glutamate, without inhibitor, 37° C., pH 8.2), the Km amounted to 1700 ± 300 µM.

`CCCC[S@@](=N)(=O)CC[C@H](N)C(=O)O` [L-buthionine-R-sulfoximine]: in series [2], the “inhibition … (in words)” value was “weak and reversible inhibitors”; the reversibility of inhibition entry is given as “reversible inhibitor”; the binding mode entry is on record as “competitive with glutamate”. This molecule displayed a Ki in series [2] (37° C., pH 8.2) of 0.11 mM. The “depletion of glutathione in brain (in words)” value in series [3] (brain, i.p., 2 hours) was “no significant effect on glutathione levels”. Also, in series [3] (kidney), the “effect on glutathione level in kidney (in words)” value is “only a small effect on glutathione level in kidney”. Moreover, the “glutathione level of kidney” value in series [3] (setting [6]) was 87 % of control. In series [3] (liver, i.p., 2 hours), the “depletion of glutathione in liver (in words)” value is recorded as “no significant effect on glutathione levels; also recorded: did not cause significant depletion of glutathione”. The “depletion of glutathione in pancreas (in words)” value in series [3] (pancreas, i.p., 2 hours) is “no significant effect on glutathione levels; also recorded: did not cause significant depletion of glutathione”. Besides, in series [4], the “tissue content, brain” value came to 0.17 μmole/gm tissue; the “tissue content, heart” value amounted to 0.49 μmole/gm tissue; the “tissue content, large intestine” value came to 0.20 μmole/gm tissue; the “tissue content, liver” value came out at 0.16 μmole/gm tissue. Also, in series [4], the “tissue content, lung” value is 0.55 μmole/gm tissue; the “tissue content, skeletal muscle” value amounted to 0.24 μmole/gm tissue; the “tissue content, small intestine” value is 0.39 μmole/gm tissue; the “tissue content, spleen” value came out at 0.59 μmole/gm tissue. In series [4], the “tissue content, testes” value was 0.50 μmole/gm tissue. The “uptake or retention by some tissues (in words)” value in series [4] (e.g., heart and liver) is reported as “more effectively than L-buthionine-S-sulfoximine”.

For the molecule `CCCCS(=N)(=O)CC[C@@H](N)C(=O)O` (stereo partly drawn) [D-buthionine-SR-sulfoximine, reference compound], in series [2], the “inhibition … (in words)” value is “weak and reversible inhibitors”; the reversibility of inhibition result is reported as “reversible inhibitor”; the binding mode entry is given as “competitive with glutamate”. The same molecule registered a Ki in series [2] (37° C., pH 8.2) of 5.2 mM. In series [3] (setting [6]), the “glutathione level of kidney” value is listed as 70 % of control. In addition, the “depletion of glutathione in liver (in words)” value in series [3] (liver, i.p., 2 hours) is given as “did not cause significant depletion of glutathione”. Also, in series [3] (pancreas, i.p., 2 hours), the “depletion of glutathione in pancreas (in words)” value is given as “did not cause significant depletion of glutathione”.
